Counter-ions that a name gives are not always drawn.

This is an account of results in patent publication EP0589484A1, “1,2-Ethanediol derivative and salt thereof, process for producing the same, and cerebral function-improving agent comprising the same” (TOYAMA CHEMICAL CO., LTD., priority 1989, dated 1990).

The subject of the first test is ddY female mouse. Put plainly: Effect of test compound on hypoxia (antihypoxic activity). To be noted: po, 100 mg/kg orally, placed in chamber (4% oxygen, 96% nitrogen) after 1 hour from the administration, survival time relative to control, read-out: Antihypoxic activity (%). The test is classed as in vivo. Here is the method: A test compound dissolved in physiological saline (100 mg/kg) was orally administered to a ddY female mouse (5-6 weeks old, each group consisting of 10 mice). After 1 (or 30 minutes*) hour from the administration, each mouse was placed in a 300-ml glass chamber, and a gas mixture consisting of 4% of oxygen and 96% of nitrogen was passed through the chamber at a rate of 5 liters/min. A time from the start of gas passing to the death of each mouse was measured.
To a control mice group was orally administered only physiological saline.
The antihypoxic activity of the test compound was calculated from the following formula: [formula]
Turning to `OC(COCCN1CCCCC1)c1cccc(Cl)c1` (centres unmarked) [compound 36], the response vs control in vivo at 100 mg/kg came out at 139%.
Still for that read-out and setting: the result for `CN(C)CCOCC(O)c1ccc(OCc2ccc(Cl)cc2)cc1` (centres unmarked) [compound 49] reads 151%; that for `CN(C)CCOCC(O)c1ccc(-c2ccccc2)cc1` (centres unmarked) [compound 56], 182%.
For `Cc1cccc(C(O)COCC2CNCCO2)c1` (centres unmarked) [compound 152], the response vs control in vivo at 100 mg/kg worked out at 180%.
In the case of `OC(COCC1CNCCO1)c1cccc(Cl)c1` (centres unmarked) [compound 153], the response vs control in vivo at 100 mg/kg turned out to be 185%.
On the same count and under the same terms, the same measure for `OC(COCCN1CCN(C(c2ccccc2)c2ccccc2)CC1)c1ccccc1` (centres unmarked) [compound 167]: 165%.
For `CC(=O)N(C)CCOCC(O)c1ccccc1` (centres unmarked) [compound 181], the response vs control in vivo at 100 mg/kg came to 132%.
Same read-out and setting: the result for `COC(COCCN(C)C)c1ccc(OCc2ccccc2)cc1` (centres unmarked) [compound 213] reads 149%.
`Cn1cncc1COCC(O)c1ccc(OCc2ccccc2)cc1` (centres unmarked) [compound 215, 1-(4-Benzyloxyphenyl)-2-[(1-methylimidazol-5-yl)-methoxy]ethanol]: the response vs control in vivo at 100 mg/kg turned out to be 197%.
The same measure, in the same setting: the result for `CN(C)CCOCC(O)c1ccc(F)c2ccccc12` (centres unmarked) [compound 231] reads 246%; that for `Cc1ccc(C(O)COCCN(C)C)c2ccccc12` (centres unmarked) [compound 232], 150%; that for `OC(COCCN1CCCCC1)c1ccc2ccccc2c1` (centres unmarked) [compound 238], 123%.
On the same count and under the same terms, the result for `CCN(CC)CCOCC(O)c1cccc2ccccc12` (centres unmarked) [compound 243] reads 159%.

Still in this test, the particulars now being: po, 0.5 h, 100 mg/kg orally, placed in chamber (4% oxygen, 96% nitrogen) after 30 minutes from the administration (values marked *), survival time relative to control, read-out: Antihypoxic activity (%).
Take `Cc1ccccc1C(O)COCCN(C)C` (centres unmarked) [compound 14]: the response vs control in vivo at 100 mg/kg came to 184%.
Still for that read-out and setting: the same measure for `CN(C)CCOCC(O)c1ccc(C(C)(C)C)cc1` (centres unmarked) [compound 19]: 168%.
The same measure, in the same setting: the same measure for `Cc1cccc(C(O)COCCCCN(C)C)c1` (centres unmarked) [compound 23]: 241%; for `Cc1cc(C)cc(C(O)COCCN(C)C)c1` (centres unmarked) [compound 27]: 201%.
On to `CN(C)CCOCC(O)c1ccc(OCc2ccccn2)cc1` (centres unmarked) [compound 84], for which the response vs control in vivo at 100 mg/kg was found to be 175%.
With `CN(C)CCOCC(O)c1c(Cl)cccc1Cl` (centres unmarked) [compound 96], the response vs control in vivo at 100 mg/kg came out at 176%.
Consider `COc1cc(C(O)COCCN(C)C)ccc1OCc1ccccc1` (centres unmarked) [compound 98], for which the response vs control in vivo at 100 mg/kg was determined as 164%.
Still for that read-out and setting: the same measure for `OC(COCCN1CCOCC1)c1ccc(OCc2ccccc2)cc1` (centres unmarked) [compound 100]: 171%.
Still for that read-out and setting: the result for `NCCOCC(O)c1ccccc1` (centres unmarked) [compound 102] reads 140%; that for `Cc1cccc([C@@H](O)COCCN(C)C)c1` [compound 104], 160%; that for `OC(COCc1cccnc1)c1ccc(OCc2ccccc2)cc1` (centres unmarked) [compound 121], 149%.
On to `OC(COCc1ccccn1)c1ccccc1` (centres unmarked) [compound 122], for which the response vs control in vivo at 100 mg/kg stood at 142%.
In the case of `OC(COCc1ccncc1)c1ccccc1` (centres unmarked) [compound 123], the response vs control in vivo at 100 mg/kg was 140%.
Same read-out and setting: the result for `Cc1cccc(C(O)COCc2cccnc2)c1` (centres unmarked) [compound 125] reads 172%; that for `O[C@H](COCc1cccnc1)c1ccccc1` [compound 129], 158%; that for `COc1ccc(C(O)COCc2cccnc2)cc1` (centres unmarked) [compound 131], 167%.
The same measure, in the same setting: the same measure for `O[C@@H](COCC1CNCCS1)c1ccccc1` (some centres unmarked) [compound 134]: 201%.
In the case of `OC(COCc1c[nH]cn1)c1ccc(OCc2ccccc2)cc1` (centres unmarked) [compound 137], the response vs control in vivo at 100 mg/kg was 163%.
Consider `OC(COCc1cccnc1)c1cccc(Oc2ccccc2)c1` (centres unmarked) [compound 139], for which the response vs control in vivo at 100 mg/kg turned out to be 162%.
Same read-out and setting: the same measure for `CC(=O)OC(COCCN(C)C)c1cccc(C)c1` (centres unmarked) [compound 180]: 176%; for `CC(=O)OC(COCCN(C)C)c1ccc(-c2ccccc2)cc1` (centres unmarked) [compound 187]: 153%.
The same measure, in the same setting: the same measure for `CC(=O)OC(COCc1cccnc1)c1ccccc1` (centres unmarked) [compound 188]: 144%; for `CN1CCN(CCOCC(O)c2ccc(OCc3ccccc3)cc2)CC1` (centres unmarked) [compound 195]: 176%; for `CN(CCOCC(O)c1ccc(OCc2ccccc2)cc1)C1CC1` (centres unmarked) [compound 203]: 177%.
With `OC(COCCNC1CC1)c1ccc(OCc2ccccc2)cc1` (centres unmarked) [compound 204], the response vs control in vivo at 100 mg/kg stood at 176%.
The same measure, in the same setting: the same measure for `Cc1cccc(C(O)COCCNC2CC2)c1` (centres unmarked) [compound 208]: 242%; for `CC(C)(C)NCCOCC(O)c1ccccc1` (centres unmarked) [compound 211]: 177%.
Same read-out and setting: the result for `O[C@H](COC[C@@H]1CNCCO1)c1ccccc1` [compound 218, (1S,2'S)-1-phenyl-2-[(morpholin-2-yl)methoxy]ethanol oxalate] reads 157%; that for `CC(CN(C)C)OCC(O)c1cccc2ccccc12` (centres unmarked) [compound 250], 145%.
With `CN(C)CCOCC(O)c1ccc2c(c1)CCC2` (centres unmarked) [compound 252], the response vs control in vivo at 100 mg/kg worked out at 190%.
For the compound `CN1CCC=C(COCC(O)c2cccc3ccccc23)C1` (centres unmarked) [compound 271], the response vs control in vivo at 100 mg/kg is 150%.
`OC(COCc1cccnc1)c1ccc2ccccc2c1` (centres unmarked) [compound 272]: the response vs control in vivo at 100 mg/kg worked out at 185%.
With `CN(C)CCOCC(O)c1cccc2ccsc12` (centres unmarked) [compound 320], the response vs control in vivo at 100 mg/kg stood at 212%.
Still for that read-out and setting: the result for `OC(COCCN1CCCCC1)c1ccc2sccc2c1` (centres unmarked) [compound 330] reads 242%; that for `CN(C)CCOCC(O)c1ccc2c(c1)CCS2` (centres unmarked) [compound 332], 230%.
As to `CC(COCC(O)c1ccc2sccc2c1)N(C)C` (centres unmarked) [compound 338], the response vs control in vivo at 100 mg/kg amounted to 144%.
Consider `OC(COCc1cccnc1)c1ccc2occc2c1` (centres unmarked) [compound 339, 1-(benzo[b]furan-5-yl)-2-(pyridin-3-yl-methxoy)ethanol], for which the response vs control in vivo at 100 mg/kg was 131%.
Same read-out and setting: the result for `OC(COCc1cccnc1)c1ccc2sccc2c1` (centres unmarked) [compound 340] reads 163%; that for `OC(COCC1CNCCO1)c1ccc2sccc2c1` (centres unmarked) [compound 343], 160%.
Regarding `CN1CCCC(COCC(O)c2ccc3sccc3c2)C1` (centres unmarked) [compound 344], the response vs control in vivo at 100 mg/kg amounted to 268%.
With `CN1CCC=C(COCC(O)c2ccc3sccc3c2)C1` (centres unmarked) [compound 345], the response vs control in vivo at 100 mg/kg came out at 185%.
As to `OC(COCCNC1CC1)c1ccc2sccc2c1` (centres unmarked) [compound 348], the response vs control in vivo at 100 mg/kg amounted to 251%.
Still for that read-out and setting: the same measure for `CN1CCN(CCOCC(O)c2ccc3sccc3c2)CC1` (centres unmarked) [compound 349]: 209%; for `OC(COCCNC12CC3CC(CC(C3)C1)C2)c1ccc2sccc2c1` (centres unmarked) [compound 353]: 132%.
Same read-out and setting: the same measure for `NCCOCC(O)c1ccc2sccc2c1` (centres unmarked) [compound 357, 1-(benzo[b]thiophen-5-yl)-2-(2-aminoethoxy)ethanol 1/2 fumarate]: 189%.
With `OC(COCc1c[nH]cn1)c1ccc2sccc2c1` (centres unmarked) [compound 358, 1-(benzo[b]thiophen-5-yl)-2-[(imidazolyl)methoxy]ethanol], the response vs control in vivo at 100 mg/kg stood at 211%.
Consider `CN(C)CCOCC(O)c1ccc2[nH]ccc2c1` (centres unmarked) [compound 365], for which the response vs control in vivo at 100 mg/kg is 155%.
As to `OC(COCCCNC1CC1)c1ccc2sccc2c1` (centres unmarked) [compound 383], the response vs control in vivo at 100 mg/kg came out at 293%.
Take `OC(COCCCN1CCCCC1)c1ccc2sccc2c1` (centres unmarked) [compound 387]: the response vs control in vivo at 100 mg/kg came to 228%.
As for `OC(COCCN1CCN(Cc2ccccc2)CC1)c1ccc2occc2c1` (centres unmarked) [compound 394, dihydrochloride], the response vs control in vivo at 100 mg/kg was found to be 241%.

Still in this test, the particulars now being: po, 0.5 h, read-out: Antihypoxic activity (%).
Take `CN1CCN(CCOCC(O)c2cccc3ccccc23)CC1` (centres unmarked) [compound 259, 2-[2-(4-methylpiperazin-1-yl)ethoxy]-1-(1-naphthyl)ethanol dihydrochloride]: the response vs control in vivo at 100 mg/kg worked out at 155%.
Take `CN(C)CCOCC(O)c1cccc2cccc([N+](=O)[O-])c12` (centres unmarked) [compound 289, 2-[2-(N,N-dimethylamino)ethoxy]-1-(8-nitro-1-naphthyl)ethanol oxalate]: the response vs control in vivo at 100 mg/kg amounted to 157%.
On the same count and under the same terms, the result for `CNCCOCC(O)c1ccc2sccc2c1` (centres unmarked) [compound 347, 1-(benzo[b]thiophen-5-yl)-2-(N-methylaminoethoxy)ethanol hydrochloride] reads 162%.
The same measure, in the same setting: the same measure for `CCN(CC)CCOCC(O)c1ccc2sccc2c1` (centres unmarked) [compound 388, 2-[2-(N,N-diethylamino)ethoxy]-1-(benzo[b]thiophen-5-yl)ethanol hydrochloride]: 213%.

Staying with this test, now noted: po, 1 h, read-out: Antihypoxic activity (%).
As for `CNCCOCC(O)c1cccc2ccccc12` (centres unmarked) [compound 261, 2-[2-(N-methylamino)ethoxy]-1-(1-naphthyl)ethanol hydrochloride], the response vs control in vivo at 100 mg/kg amounted to 126%.
